The values that follow come from US20160237511A1, “METHODS FOR D[…] SENSITIVITY TO VIRAL INHIBITORS” (priority 2013, published 2016).

One data set relates to HCV infection. Conditions: cited from earlier work.
In data set [1] the test system is GT4 (a/d/n/unknown) chimeric replicons (patient-derived NS5B). Description: PhenoSense HCV NS5B Assay, GT4 chimeric replicons. The format is cell-based, hepatitis C virus (HCV). Conditions: Example 4; IC50 fold change, compared to GT1 chimeric replicons. Here is the method: (§1) RTV RNA was electroporated into a Huh7 cell line, and electroporated cells were incubated in the absence and presence of serially diluted inhibitors. RNA input was monitored by measuring the amount of luciferase activity produced in the electroporated cells at 4 hours post-electroporation. Luciferase activity is expressed as relative light units (RLU). Replication capacity (RC) was determined by evaluating luciferase activity at 72-96 hours postelectroporation in the absence of inhibitor, relative to RNA input and a control reference replicon RTV (Con1). A replication defective Con1 replicon (Con1 polymerase defective) was utilized to determine assay background (data not shown). Inhibitor susceptibility was determined by evaluating the ability of RTVs to replicate in the absence and presence of inhibitor at 72-96 hours post-electroporation. The % inhibition at each serial diluted inhibitor concentration was derived as follows:
(§2) [1−([…])]×100
(§3) Inhibitor susceptibility profiles (curves) were derived from these values, and inhibition data (e.g., IC50, the inhibitor concentration required to reduce virus replication by 50%; and IC95, the inhibitor concentration required to reduce virus replication by 95%) was extrapolated from fitted curves. […]
For orientation: Replicon systems follow genome replication, usually without infectious particles.

For data set [2], the system named is GT3 (a/unknown) chimeric replicons (patient-derived NS5B). Kind of data set: PhenoSense HCV NS5B Assay, GT3 chimeric replicons. The class given is cell-based, hepatitis C virus (HCV). Conditions: Example 4; for susceptibility of GT3 chimeric replicons: IC50 fold change, compared to GT1 chimeric replicons. On the procedure: as §1, §2
(§4) Inhibitor susceptibility profiles (curves) were derived from these values, and inhibition data (e.g., IC50, the inhibitor concentration required to reduce virus replication by 50%; and IC95, the inhibitor concentration required to reduce virus replication by 95%) was extrapolated from fitted curves. Inhibition data are reported as fold-change relative to that of a reference RTV (e.g., IC50 (sample)/IC50 (reference)) processed in the same assay batch (e.g., IC50 fold-change (FC) from reference). An example of the PhenoSense® HCV NS5B Assay workflow is shown in FIG. 1, and a representative inhibitor susceptibly curve is shown in FIG. 2.
(§5) To determine the susceptibility of different genotype viruses to various inhibitors, the PhenoSense® HCV NS5B Assay was used. A panel of replicons were generated that contained patient-derived NS5B regions from GT1 (a/b), GT2 (a/b/k), GT3 (a/unknown), and GT4 (a/d/n/unknown) viruses. The various chimeric replicons were used in the phenotypic susceptibility assays described herein. […]

Data set [3] concerns GT2 (a/b/k) chimeric replicons (patient-derived NS5B). Description: PhenoSense HCV NS5B Assay, GT2 chimeric replicons. The class given is cell-based, hepatitis C virus (HCV). Conditions: for susceptibility of GT2 chimeric replicons: Example 4, IC50 fold change, compared to GT1 chimeric replicons. Here is the method: as §1, §2, §4, §5
In data set [4] the test system is GT1 (a/b) chimeric replicons (patient-derived NS5B). Description: PhenoSense HCV NS5B Assay, GT1 chimeric replicons. The class given is cell-based, hepatitis C virus (HCV). Particulars: GT1a/b NS5B replicons. Here is the method:
as §1, §2, §3

For data set [5] the following is noted: non-primate animal species; cited from earlier work.
The test system of data set [6] is replicons containing patient-derived NS5B regions from GT1, GT2, GT3, and GT4 viruses. Kind of data set: PhenoSense HCV NS5B Assay, luciferase replicon panel across genotypes. The class given is cell-based, hepatitis C virus (HCV). Particulars: for variation in susceptibility within and between genotypes: GT1-GT4 chimeric replicons, IC50/IC95 fold change. Here is the method: Most samples were received as frozen plasma and were accompanied by information including HCV genotype and/or subtype (e.g., 1a, 1b, 2, 3, 4) and viral load. Samples were thawed and stored in frozen aliquots if necessary, and a 200 μL aliquot was processed. Virus particles were disrupted by addition of lysis buffer containing a chaotropic agent. Genomic viral RNA (vRNA) was extracted from viral lysates using oligo-nucleotide linked magnetic beads. Purified vRNA was used as a template for first-strand cDNA synthesis in a reverse transcriptase (RT) reaction. The resulting cDNA was used as the template for the first round of a nested polymerase chain reaction (PCR) that results in the amplification of the entire NS5B region. Due to the sequence variation between different genotypes, specific RT and first and second round PCR primers were used. If genotype and/or subtype information was not available, more than one primer set can be used sequentially or in parallel.
The second round (nested) PCR amplification primer set contained restriction endonuclease recognition/cleavage sites that enable cloning of NS5B amplification products into an HCV replicon resistance test vector (RTV) for phenotypic drug susceptibility analysis. […] Plasmid DNA was purified from bacterial cultures, using silica column chromatography, and was quantified by spectrophotometry.
Prior to in vitro transcription of the RTV, the plasmid DNA template was linearized by restriction endonuclease digestion and column purified. […] In vitro transcribed RNA was column purified, quantified, and the integrity was evaluated using electrophoretic separation.
RTV RNA was electroporated into a Huh7 cell line, and electroporated cells were incubated in the absence and presence of serially diluted inhibitors. RNA input was monitored by measuring the amount of luciferase activity produced in the electroporated cells at 4 hours post-electroporation. Luciferase activity is expressed as relative light units (RLU). […]

Regarding `NC(=O)c1ncn([C@@H]2O[C@H](CO)[C@@H](O)[C@H]2O)n1` [RBV, ribavirin], the half-life entry in the data set on HCV infection (in the body) is listed as “long half-life”. Further, in the data set on HCV infection (patients), the anemia result is “cause of anemia”. In addition, in data set [1], the “susceptibility of GT4 chimeric replicons” value was “particularly susceptible”. The “susceptibility of GT3 chimeric replicons” value in data set [2] is “particularly susceptible”. In addition, the “susceptibility of GT2 chimeric replicons” value in data set [3] is given as “statistically significant increases”. Moreover, in data set [4], the “susceptibility among GT1 replicons” value is “similar”. Also, the teratogenic effects result in data set [5] was “Significant teratogenic effects”. For the same molecule, in data set [6], the “variation in susceptibility within and between genotypes” value is given as “more variable between genotypes”. In data set [6] (IC fold change vs Con1 reference, range over GT1-GT4 viruses (FIG. 6, FIG. 10)), the “IC FC range” value was found to be 25.
Consider `CC(C)OC(=O)[C@H](C)N[P@](=O)(OC[C@H]1O[C@@H](n2ccc(=O)[nH]c2=O)[C@](C)(F)[C@@H]1O)Oc1ccccc1` [SOF, sofosbuvir], for which the “most common adverse effects” value in the data set on HCV infection (administered in combination with PEG-IFN) was “fatigue, headache, nausea, insomnia, and anemia”. Also, the reported adverse effects result in the data set on HCV infection (administered in combination with ribavirin) was “fatigue and headache”. Moreover, the “susceptibility of GT4 chimeric replicons” value in data set [1] is “significantly reduced”. Also, in data set [2], the “susceptibility of GT3 viruses compared to GT2” value was “reduced susceptibility” and the “susceptibility of GT3 chimeric replicons” value is listed as “significantly reduced”. For the same molecule, the “susceptibility of GT2a compared to GT2b chimeric replicons” value in data set [3] (Example 4 (FIG. 8, FIG. 9)) is listed as “more increased susceptibility”. In data set [3], the “susceptibility of GT2 chimeric replicons” value is “increased susceptibility”. The “susceptibility among GT1 replicons” value in data set [4] was “similar”. In addition, in data set [6], the “variation in susceptibility within and between genotypes” value is “more variable between genotypes”.
